The text below walks through data of article PMC5471912, “Integrated metabolome and transcriptome analysis of Magnolia champaca identifies biosynthetic pathways for floral volatile organic compounds” (BMC Genomics, 2017).

This assay has as its target T1, McTPS1 (Magnolia champaca, UniProt A0A1Y0BW36).
T1 construct: gene TPS1; full-length ORF (plastid transit peptide apparently kept), N-terminal 6His tag (pDEST17), E. coli BL21 pLysS, Ni-NTA purified
T1 sequence (A0A1Y0BW36 1-581): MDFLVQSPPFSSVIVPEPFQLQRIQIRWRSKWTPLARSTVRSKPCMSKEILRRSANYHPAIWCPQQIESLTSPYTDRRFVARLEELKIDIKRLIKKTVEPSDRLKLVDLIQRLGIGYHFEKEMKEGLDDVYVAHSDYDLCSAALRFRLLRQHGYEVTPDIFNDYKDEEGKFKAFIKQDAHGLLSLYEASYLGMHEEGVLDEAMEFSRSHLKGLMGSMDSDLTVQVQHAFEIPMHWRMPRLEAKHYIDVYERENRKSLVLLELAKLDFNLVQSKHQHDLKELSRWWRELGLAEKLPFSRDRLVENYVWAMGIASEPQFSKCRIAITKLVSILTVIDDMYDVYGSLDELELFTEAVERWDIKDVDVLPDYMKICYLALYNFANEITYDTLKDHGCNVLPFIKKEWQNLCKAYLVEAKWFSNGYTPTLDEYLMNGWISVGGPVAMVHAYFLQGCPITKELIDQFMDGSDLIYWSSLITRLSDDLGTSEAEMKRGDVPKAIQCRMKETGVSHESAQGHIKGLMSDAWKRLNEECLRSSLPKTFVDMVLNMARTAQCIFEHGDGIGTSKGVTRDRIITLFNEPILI
Briefly: in vitro TPS assay, chiral phase GC-MS. To be noted: 25 mM HEPES pH 7.4, 100 mM KCl, 7.5 mM MgCl2, 5 mM DTT (1X of the 2X buffer), 30 °C, 2 h. The assay is classed as biochemical.

Consider `C=C[C@](C)(O)CCC=C(C)C` [(R)-linalool], for which the “in vitro TPS assay, chiral phase GC-MS” value (from GPP) is recorded as “our in vitro assays identified McTPS1 as the (R)-linalool synthase”.
Turning to `CC(C)=CCC/C(C)=C/COP(=O)(O)OP(=O)(O)O` [geranyl diphosphate], the “in vitro TPS assay, chiral phase GC-MS” value is reported as “McTPS1 reacted with GPP to produce (R)-linalool, a monoterpene alcohol”.
